The source of these data is patent US12077503B2, “Substituted cyclic amides and their use as herbicides” (FMC CORPORATION, priority 2015, dated 2024).

What all share (type): in vivo
Assay [1] concerns pigweed (Amaranthus retroflexus). Kind of assay: Test A postemergence. As to conditions: Amaranthus retroflexus, post-emergence, 240 h, 125 g ai/ha, postemergence, visual injury rating after approximately 10 d; read-out: Pigweed plant response rating (0 to 100 scale, 0 no effect, 100 complete control). The procedure, abridged:
(§1)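 Preemergence soil spray on seeded pots or post-emergence spray on 1–2 leaf plants, in loam–sand blend. Greenhouse ~10 d. Visual rating 0–100 against untreated plants.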

Assay [2] has as its system blackgrass (Alopecurus myosuroides). As to the kind of experiment: Test A postemergence. As to conditions: Alopecurus myosuroides, post-emergence, 240 h, 125 g ai/ha, postemergence, visual injury rating after approximately 10 d; read-out: Blackgrass plant response rating (0 to 100 scale, 0 no effect, 100 complete control). The essentials:
as §1

Assay [3] concerns Galium (catchweed bedstraw, Galium aparine). Kind of assay: Test A postemergence. To be noted: Galium, post-emergence, 240 h, 125 g ai/ha, postemergence, visual injury rating after approximately 10 d; read-out: Galium plant response rating (0 to 100 scale, 0 no effect, 100 complete control). The essentials:
as §1

Assay [4] concerns wheat (Triticum aestivum). Kind of assay: Test A postemergence. As to conditions: Triticum aestivum, post-emergence, 240 h, 125 g ai/ha, postemergence, visual injury rating after approximately 10 d; read-out: Wheat plant response rating (0 to 100 scale, 0 no effect, 100 complete control). The essentials: as §1
Assay [5] deals with giant foxtail (Setaria faberii). Kind of assay: Test A postemergence. To be noted: Setaria faberi, post-emergence, 240 h, 125 g ai/ha, postemergence, visual injury rating after approximately 10 d; read-out: Foxtail, Giant plant response rating (0 to 100 scale, 0 no effect, 100 complete control). The essentials:
as §1

A further assay relates to corn (Zea mays). Kind of assay: Test A postemergence. To be noted: Zea mays, post-emergence, 240 h, 125 g ai/ha, postemergence, visual injury rating after approximately 10 d; read-out: Corn plant response rating (0 to 100 scale, 0 no effect, 100 complete control). The procedure, abridged:
as §1

In assay [6] the test system is ragweed (common ragweed, Ambrosia elatior). As to the kind of experiment: Test A postemergence. As to conditions: Ambrosia artemisiifolia, post-emergence, 240 h, 125 g ai/ha, postemergence, visual injury rating after approximately 10 d; read-out: Ragweed plant response rating (0 to 100 scale, 0 no effect, 100 complete control). The procedure, abridged:
as §1

The test system of assay [7] is ryegrass, Italian (Italian ryegrass, Lolium multiflorum). As to the kind of experiment: Test A postemergence. As to conditions: Lolium multiflorum, post-emergence, 240 h, 125 g ai/ha, postemergence, visual injury rating after approximately 10 d; read-out: Ryegrass, Italian plant response rating (0 to 100 scale, 0 no effect, 100 complete control). The essentials:
as §1

Assay [8] concerns Kochia (Kochia scoparia). As to the kind of experiment: Test A postemergence. As to conditions: Bassia scoparia, post-emergence, 240 h, 125 g ai/ha, postemergence, visual injury rating after approximately 10 d; read-out: Kochia plant response rating (0 to 100 scale, 0 no effect, 100 complete control). The essentials: as §1
For assay [9], the system named is barnyardgrass (Echinochloa crus-galli). Kind of assay: Test A postemergence. To be noted: Echinochloa crus-galli, post-emergence, 240 h, 125 g ai/ha, postemergence, visual injury rating after approximately 10 d; read-out: Barnyardgrass plant response rating (0 to 100 scale, 0 no effect, 100 complete control). The procedure, abridged:
as §1

The test system of assay [10] is pigweed (Amaranthus retroflexus). Kind of assay: Test A preemergence. To be noted: Amaranthus retroflexus, pre-emergence, 240 h; for pest or weed control at 125 g/ha: 125 g ai/ha, preemergence, 0 to 100 scale where 0 is no effect and 100 is complete control, read-out: Pigweed plant response rating; for pest or weed control at 500 g/ha: 500 g ai/ha, Preemergence, visual injury vs untreated controls after approximately 10 d, read-out: Pigweed plant response rating (0 to 100 scale where 0 is no effect and 100 is complete control).

Assay [11] concerns giant foxtail (Setaria faberii). As to the kind of experiment: Test A preemergence. To be noted: Setaria faberi, pre-emergence, 240 h; for pest or weed control at 125 g/ha: 125 g ai/ha, preemergence, 0 to 100 scale where 0 is no effect and 100 is complete control, read-out: Foxtail, Giant plant response rating; for pest or weed control at 500 g/ha: 500 g ai/ha, Preemergence, visual injury vs untreated controls after approximately 10 d, read-out: Foxtail, Giant plant response rating (0 to 100 scale where 0 is no effect and 100 is complete control). The essentials:
as §1

In assay [12] the test system is ragweed (common ragweed, Ambrosia elatior). Kind of assay: Test A preemergence. As to conditions: Ambrosia artemisiifolia, pre-emergence, 240 h; for pest or weed control at 125 g/ha: 125 g ai/ha, preemergence, 0 to 100 scale where 0 is no effect and 100 is complete control, read-out: Ragweed plant response rating; for pest or weed control at 500 g/ha: 500 g ai/ha, Preemergence, visual injury vs untreated controls after approximately 10 d, read-out: Ragweed plant response rating (0 to 100 scale where 0 is no effect and 100 is complete control). The essentials: as §1

Assay [13] has as its system ryegrass, Italian (Italian ryegrass, Lolium multiflorum). Kind of assay: Test A preemergence. As to conditions: Lolium multiflorum, pre-emergence, 240 h; for pest or weed control at 125 g/ha: 125 g ai/ha, preemergence, 0 to 100 scale where 0 is no effect and 100 is complete control, read-out: Ryegrass, Italian plant response rating; for pest or weed control at 500 g/ha: 500 g ai/ha, Preemergence, visual injury vs untreated controls after approximately 10 d, read-out: Ryegrass, Italian plant response rating (0 to 100 scale where 0 is no effect and 100 is complete control). The essentials:
as §1

In assay [14] the test system is Kochia (Kochia scoparia). Kind of assay: Test A preemergence. As to conditions: Bassia scoparia, pre-emergence, 240 h; for pest or weed control at 125 g/ha: 125 g ai/ha, preemergence, 0 to 100 scale where 0 is no effect and 100 is complete control, read-out: Kochia plant response rating; for pest or weed control at 500 g/ha: 500 g ai/ha, Preemergence, visual injury vs untreated controls after approximately 10 d, read-out: Kochia plant response rating (0 to 100 scale where 0 is no effect and 100 is complete control). The procedure, abridged: as §1

Assay [15] deals with barnyardgrass (Echinochloa crus-galli). Kind of assay: Test A preemergence. As to conditions: Echinochloa crus-galli, pre-emergence, 240 h; for pest or weed control at 125 g/ha: 125 g ai/ha, preemergence, 0 to 100 scale where 0 is no effect and 100 is complete control, read-out: Barnyardgrass plant response rating; for pest or weed control at 500 g/ha: 500 g ai/ha, Preemergence, visual injury vs untreated controls after approximately 10 d, read-out: Barnyardgrass plant response rating (0 to 100 scale where 0 is no effect and 100 is complete control). The essentials:
as §1

On to `Cc1c(F)cccc1NC(=O)[C@H]1C(=O)N(C)C[C@@H]1c1cc(F)c(F)c(F)c1` [Compound 867], for which the pest or weed control at 125 g/ha in [1] turned out to be 0%; in assay [2] it was 30%; in [3], 30%; in [5] it was 80%; in assay [6] it was 0%; in assay [7] it was 20%. For the same molecule, the pest or weed control at 125 g/ha in the assay with Kochia (Kochia scoparia) [8] turned out to be 0%; in assay [9], 90%; in assay [10], 0%; in assay [11] it was 90%; in [12], 0%; in assay [13], 60%. In addition, the results for the pest or weed control at 125 g/ha (in the assay on Kochia (Kochia scoparia) [14]; in assay [15]) were 50% and 90%, respectively. In addition, the figures for the plant injury at 125 g/ha (in [4]; in the assay on corn (Zea mays)) were 20% and 60%, respectively. Further, the pest or weed control at 500 g/ha in [10] was 30%; in [11], 90%; in assay [12], 30%; in assay [13], 60%; with Kochia (Kochia scoparia) [14] it was 70%; in [15], 90%.
Take `CN1C[C@H](c2cc(F)cc(F)c2)[C@@H](C(=O)Nc2ncc(C(F)(F)F)cc2F)C1=O` [Compound 868]: the pest or weed control at 125 g/ha in assay [1], in [2], in assay [3], in [5], in assay [6] and in assay [7] was 0% in each case. Besides, the pest or weed control at 125 g/ha in the assay with Kochia (Kochia scoparia) [8] was 0%; in [9], 20%; in assay [10], 0%; in assay [11] it was 20%; in assay [12] it was 0%; in assay [13], 0%. In addition, the pest or weed control at 125 g/ha in the assay on Kochia (Kochia scoparia) [14] was 0%; in assay [15], 30%. Also, the plant injury at 125 g/ha (in [4]; in the assay on corn (Zea mays)) was 0% in each case. Further, the pest or weed control at 500 g/ha in assay [10] worked out at 0%; in [11] it was 60%; in [12], 0%; in [13], 0%; with Kochia (Kochia scoparia) [14], 0%; in assay [15], 60%.
For the molecule `CN1C[C@H](c2cc(F)cc(F)c2)[C@@H](C(=O)Nc2ccccc2[S@@+](C)[O-])C1=O` [Compound 872], the pest or weed control at 125 g/ha in assay [1] came out at 30%; in assay [2], 20%; in assay [3] it was 50%; in assay [5], 80%; in assay [6], 0%; in assay [7], 0%. The pest or weed control at 125 g/ha with Kochia (Kochia scoparia) [8] amounted to 50%; in [9], 90%; in [10] it was 0%; in [11] it was 90%; in assay [12], 60%; in [13], 0%. Also, the pest or weed control at 125 g/ha in the assay on Kochia (Kochia scoparia) [14] turned out to be 0%; in assay [15], 90%. Besides, the plant injury at 125 g/ha in assay [4] is 20%; in the assay on corn (Zea mays) it was 30%. For the same molecule, the pest or weed control at 500 g/ha in [10] was determined as 60%; in [11], 90%; in assay [12], 100%; in [13], 40%; in the assay on Kochia (Kochia scoparia) [14] it was 80%; in assay [15] it was 100%.
As to `CN1C[C@H](c2cccc(COC(F)F)c2)[C@@H](C(=O)Nc2ccccc2S(C)(=O)=O)C1=O` [Compound 877], the pest or weed control at 125 g/ha in [1] stood at 0%; in assay [2], 0%; in [3] it was 20%; in [5] it was 70%; in assay [6], 0%; in assay [7] it was 20%. The pest or weed control at 125 g/ha worked out at 20% in the assay with Kochia (Kochia scoparia) [8]; 60% in assay [9]; 0% in [10]; 90% in [11]; 0% in assay [12]; 0% in assay [13]. In addition, the pest or weed control at 125 g/ha with Kochia (Kochia scoparia) [14] is 60%; in assay [15], 90%. Further, the plant injury at 125 g/ha in assay [4] came out at 30%; with corn (Zea mays) it was 0%. The pest or weed control at 500 g/ha in [10] is 0%; in [11], 90%; in assay [12] it was 60%; in assay [13], 20%; in the assay on Kochia (Kochia scoparia) [14], 80%; in [15], 100%.
